Experiments:
Format in all cases: cell-based
[1] = test system: Wnt activity (Sp5-Luc reporter, SW480 colon carcinoma cells); assay: Wnt activity screening assay, Sp5-Luc reporter gene in SW480 cells; details: Homo sapiens; for inhibition at 10 µM: SW480, read-out: percent inhibition at 10 μM; for EC50: Sp5-Luc reporter, SW480 cells, overnight incubation
From the text: The screening assay for Wnt activity is described as follows. Reporter cell lines can be generated by stably transducing cancer cell lines (e.g., colon cancer) or primary cells (e.g., IEC-6 intestinal cells) with a lentiviral construct that includes a Wnt-responsive promoter driving expression of the firefly luciferase gene.
SW480 colon carcinoma cells were transduced with a lentiviral vector expressing luciferase with a human Sp5 promoter consisting of a sequence of eight TCF/LEF binding sites. SW480 cells stably expressing the Sp5-Luc reporter gene and a hygromycin resistance gene were selected by treatment with 150 μg/mL of hygromycin for 7 days. These stably transduced SW480 cells were expanded in cell culture and used for all further screening activities. […] For Sp5-Luc reporter gene assays, the cells were plated at 4,000 cells/well in 384-well plates with medium containing 1% fetal bovine serum and incubated overnight at 37° C. and 5% CO2. Following incubation, 20 μl of BrightGlo luminescence reagent (Promega) was added to each well of the 384-well assay plates. The plates were placed on an orbital shaker for 2 min and then luminescence was quantified using the Envision (Perkin Elmer) plate reader. Readings were normalized to DMSO only treated cells, and normalized activities were utilized for EC50 calculations using the dose-response log (inhibitor) vs. response -variable slope (four parameters) nonlinear regression feature available in GraphPad Prism 5.0 (or Dotmatics).

[2] = test system: SW480 colon cancer cells; assay: Cell viability assay (CellTiter-Blue), SW480 cells, four days; details: Homo sapiens; for EC50: 96 h, SW480 cell viability, four days, CellTiter-Blue; for inhibition at 10 µM: SW480, read-out: percent inhibition at 10 μM
Description: Representative compounds were screened using the following assay procedure to assess the effect on cell viability as described below.
Approximately 2×10^3 SW480 colon cancer cells were seeded into each well and allowed to incubate in the presence or absence of compound for four days at 37° C./5% CO2. Eight replicates of DMSO-treated cells served as controls and cells treated with compound were performed in duplicate.
After incubation, 20 μL of CellTiter-Blue (Promega) was added to each well allowed to incubate for approximately 3 hours. This reagent was a buffered solution which contains resazurin, metabolically active cells were able to reduce rezarurin (blue) into resorufin (pink) which was highly fluorescent. This measured fluorescence was used as a readout for cell viability.

[3] = test system: primary human fibroblasts derived from IPF patients (LL29 cells) treated with TGF-β1; assay: Inhibition of the fibrotic process: αSMA staining in TGF-β1 treated LL29 fibroblasts; details: Fibroblast; for EC50: 96 h, LL29 cells, TGF-β1 20 ng/mL, 4 days, % αSMA positive cells; for inhibition at 10 µM: read-out: percent inhibition at 10 μM
Description: Representative compounds were screened using primary human fibroblasts (derived from IPF patients) treated with TGF-β1 to determine their ability to inhibit the fibrotic process.
LL29 cells are plated at 1,500 cells/well in 80 μL/well F12 medium supplemented with 1% Fetal Bovine Serum. […] Wells treated with TGF-β1 and containing DMSO were used as controls. […] Following incubation for 4 days, SYTOX green nucleic acid stain (Life Technologies [Thermo Fisher Scientific]) was added to the wells at a final concentration of 1 μM and incubated at room temperature for 30 min.

[4] = test system: IL-6 (THP-1 human monocyte cell line); assay: IL-6 inhibition in LPS-stimulated THP-1 cells (HTRF); details: for EC50: IL-6 inhibition, LPS-stimulated THP-1 cells, HTRF; for inhibition at 10 µM: THP-1, read-out: percentage in parentheses beside EC50 >10 (IL-6 inhibition)
Description: THP-1 cells were cultured in basal media with 1% FBS for 24 hours before the start of the assay. […] THP-1 cells were plated at 5000 cells/well in the 384-well plates and incubated at 37° C. for 2 h. 500 ng/mL of LPS was added after 2 hours and cells were incubated for another 22 hours at 37° C. Plates were spun in a centrifuge for 1 minute at […] and a mixture of anti-IL6 XL665, and anti-IL6 Cryptate diluted in reconstitution buffer (Cisbio Inc.) was added to each well. Following incubation for 3 hrs at room temperature, Homogeneous Time-Resolved Fluorescence (HTRF) was measured using the Envision (Perkin Elmer) at 665 nm and […]. The ratio of fluorescence at 665 nm to 620 nm was used as a readout for IL6 quantification. All samples were processed in duplicate. Readings were normalized to DMSO treated cells and normalized activities were utilized for EC50 calculations using the dose-response log (inhibitor) vs. response -variable slope (four parameters) nonlinear regression feature available in GraphPad Prism 5.0 (or Dotmatics).

| Structure (SMILES) | EC50 [1] [µM] | EC50 [2] [µM] | EC50 [4] [µM] | inhibition at 10 µM [1] [%] | inhibition at 10 µM [2] [%] | EC50 [3] [µM] | inhibition at 10 µM [3] [%] | inhibition at 10 µM [4] [%] |
| --- | --- | --- | --- | --- | --- | --- | --- | --- |
| CCC(=O)Nc1cncc(-c2ccc3[nH]nc(-c4cc5c(N6CCCCC6)ccnc5[nH]4)c3c2)c1 [Compound 169, N-(5-(3-(4-(Piperidin-1-yl)-1H-pyrrolo[2,3-b]pyridin-2-yl)-1H-indazol-5-yl)pyridin-3-yl)propionamide] | 1.22 | > 10 | > 10 |  | 38.1 | > 10 | 11.6 | 33 |
| O=C(Cc1ccccc1)Nc1cncc(-c2ccc3[nH]nc(-c4cc5c(N6CCCCC6)ccnc5[nH]4)c3c2)c1 [Compound 178, 2-Phenyl-N-(5-(3-(4-(piperidin-1-yl)-1H-pyrrolo[2,3-b]pyridin-2-yl)-1H-indazol-5-yl)pyridin-3-yl)acetamide] | > 10 | > 10 | > 10 | 13.8 | 18.7 | > 10 | 0 | 36.5 |
| CC(C)(C)CC(=O)Nc1cncc(-c2ccc3[nH]nc(-c4cc5c(N6CCCCC6)ccnc5[nH]4)c3c2)c1 [Compound 184, 3,3-Dimethyl-N-(5-(3-(4-(piperidin-1-yl)-1H-pyrrolo[2,3-b]pyridin-2-yl)-1H-indazol-5-yl)pyridin-3-yl)butanamide] | > 10 | > 10 | 3.99 | 11.9 | 1.6 | > 10 |  |  |
| O=C(Nc1cncc(-c2ccc3[nH]nc(-c4cc5c(N6CCCCC6)ccnc5[nH]4)c3c2)c1)C1CC1 [Compound 188, N-(5-(3-(4-(Piperidin-1-yl)-1H-pyrrolo[2,3-b]pyridin-2-yl)-1H-indazol-5-yl)pyridin-3-yl)cyclopropanecarboxamide] | > 10 | > 10 | > 10 | 27.6 | 12.9 | > 10 | 17.4 | 4.1 |
| c1cc(N2CCCCC2)c2cc(-c3n[nH]c4ccc(-c5cncc(CNCC6CCCC6)c5)cc34)[nH]c2n1 [Compound 193, 1-Cyclopentyl-N-((5-(3-(4-(piperidin-1-yl)-1H-pyrrolo[2,3-b]pyridin-2-yl)-1H-indazol-5-yl)pyridin-3-yl)methyl)methanamine] | > 10 | > 10 | > 10 | 8 | 12.5 | > 10 | 24.9 | 18 |
| FC1(F)CCN(Cc2cncc(-c3ccc4[nH]nc(-c5cc6c(N7CCCCC7)ccnc6[nH]5)c4c3)c2)C1 [Compound 194, 5-(5-((3,3-Difluoropyrrolidin-1-yl)methyl)pyridin-3-yl)-3-(4-(piperidin-1-yl)-1H-pyrrolo[2,3-b]pyridin-2-yl)-1H-indazole] | > 10 | > 10 | > 10 | 26.2 | 18.5 | 5.9 |  | 33 |

More lines, main results first:

| EC50 [1] [µM] | EC50 [2] [µM] | EC50 [4] [µM] | Structure (SMILES) | inhibition at 10 µM [1] [%] | inhibition at 10 µM [2] [%] | EC50 [3] [µM] | inhibition at 10 µM [3] [%] | inhibition at 10 µM [4] [%] |
| --- | --- | --- | --- | --- | --- | --- | --- | --- |
| > 10 | > 10 | > 10 | O=C(Nc1cncc(-c2ccc3[nH]nc(-c4cc5c(-c6ccccc6F)ccnc5[nH]4)c3c2)c1)C1CCCC1 [Compound 78, N-(5-(3-(4-(2-Fluorophenyl)-1H-pyrrolo[2,3-b]pyridin-2-yl)-1H-indazol-5-yl)pyridin-3-yl)cyclopentanecarboxamide] | 1.9 | 14.4 | > 10 | 39 | 39.9 |
| > 10 | 1.95 | > 10 | O=C(Cc1ccccc1)Nc1cncc(-c2ccc3[nH]nc(-c4cc5c(-c6ccncc6)ccnc5[nH]4)c3c2)c1 [Compound 122, 2-Phenyl-N-(5-(3-(4-(pyridin-4-yl)-1H-pyrrolo[2,3-b]pyridin-2-yl)-1H-indazol-5-yl)pyridin-3-yl)acetamide] | 28.3 |  | 6.18 |  | 47.3 |
| 0.238 | 6.07 | > 10 | CCC(=O)Nc1cncc(-c2ccc3[nH]nc(-c4cc5c(-c6ccccn6)ccnc5[nH]4)c3c2)c1 [Compound 141, N-(5-(3-(4-(Pyridin-2-yl)-1H-pyrrolo[2,3-b]pyridin-2-yl)-1H-indazol-5-yl)pyridin-3-yl)propionamide] |  |  | 1.66 |  | 30.3 |
| > 10 | > 10 | 1.54 | O=C(Nc1cncc(-c2ccc3[nH]nc(-c4cc5c(-c6ccccn6)ccnc5[nH]4)c3c2)c1)C1CCCCC1 [Compound 163, N-(5-(3-(4-(Pyridin-2-yl)-1H-pyrrolo[2,3-b]pyridin-2-yl)-1H-indazol-5-yl)pyridin-3-yl)cyclohexanecarboxamide] | 38.8 | 11.1 | > 10 | 0 |  |
| > 10 | > 10 | > 10 | CN(C)c1cncc(-c2ccc3[nH]nc(-c4cc5c(N6CCCCC6)ccnc5[nH]4)c3c2)c1 [Compound 175, N,N-Dimethyl-5-(3-(4-(piperidin-1-yl)-1H-pyrrolo[2,3-b]pyridin-2-yl)-1H-indazol-5-yl)pyridin-3-amine] | 10.7 | 13.1 | > 10 | 11.3 | 15.2 |
| > 10 | > 10 | > 10 | CN(C)Cc1cncc(-c2ccc3[nH]nc(-c4cc5c(N6CCCCC6)ccnc5[nH]4)c3c2)c1 [Compound 181, N,N-Dimethyl-1-(5-(3-(4-(piperidin-1-yl)-1H-pyrrolo[2,3-b]pyridin-2-yl)-1H-indazol-5-yl)pyridin-3-yl)methanamine] | 26.2 | 17.6 | > 10 | 9.1 | 29 |
| > 10 | > 10 | > 10 | c1cnc2[nH]c(-c3n[nH]c4ccc(-c5ccncc5)cc34)cc2c1 [Compound 270, 5-(Pyridin-4-yl)-3-(1H-pyrrolo[2,3-b]pyridin-2-yl)-1H-indazole] | 45.7 | 15.2 | 6.52 |  | 48.3 |
| > 10 | > 10 | > 10 | c1ncc(-c2ccc3[nH]nc(-c4cc5c(-c6ccsc6)ccnc5[nH]4)c3c2)cn1 [Compound 307, 5-(Pyrimidin-5-yl)-3-(4-(thiophen-3-yl)-1H-pyrrolo[2,3-b]pyridin-2-yl)-1H-indazole] | 6 | 0 | > 10 | 0 | 45.5 |
| > 10 | > 10 | > 10 | CN(C)Cc1cncc(-c2ccc3[nH]nc(-c4cc5c(-c6ccoc6)ccnc5[nH]4)c3c2)c1 [Compound 321, 1-(5-(3-(4-(Furan-3-yl)-1H-pyrrolo[2,3-b]pyridin-2-yl)-1H-indazol-5-yl)pyridin-3-yl)-N,N-dimethylmethanamine] | 3.7 | 7.9 | 1.37 |  | 19 |
